From ChEMBL document CHEMBL5291721, “A preclinical secondary pharmacology resource illuminates target-adverse drug reaction associations of marketed drugs” (Nat Commun, 2023)

What was measured:
D(1A) dopamine receptor = D(1A) dopamine receptor (Homo sapiens, UniProt P21728); assay type: functional, cell-based
[1] = target: Beta-2 adrenergic receptor (Homo sapiens, UniProt P07550); assay type: functional, cell-based
[2] = target: T1, 5-hydroxytryptamine receptor 1A (Homo sapiens, UniProt P08908); assay type: functional, cell-based
T1 sequence (P08908 whole entry): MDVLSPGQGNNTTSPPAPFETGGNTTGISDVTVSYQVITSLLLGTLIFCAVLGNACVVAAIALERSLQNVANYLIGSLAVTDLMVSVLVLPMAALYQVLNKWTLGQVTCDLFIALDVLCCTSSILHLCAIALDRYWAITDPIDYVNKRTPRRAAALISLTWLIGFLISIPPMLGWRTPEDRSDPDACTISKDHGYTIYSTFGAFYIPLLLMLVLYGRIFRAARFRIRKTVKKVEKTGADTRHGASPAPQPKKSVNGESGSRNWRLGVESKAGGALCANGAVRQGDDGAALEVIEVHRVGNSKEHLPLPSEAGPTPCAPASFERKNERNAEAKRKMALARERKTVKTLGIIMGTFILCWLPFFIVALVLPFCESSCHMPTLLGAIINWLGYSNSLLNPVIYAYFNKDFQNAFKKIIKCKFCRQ

Histamine H2 receptor = Histamine H2 receptor (Homo sapiens, UniProt P25021); assay type: functional, cell-based
[3] = target: Gamma-aminobutyric acid receptor subunit alpha-1 (Rattus norvegicus, UniProt P62813)
Adenosine receptor A2a = Adenosine receptor A2a (Homo sapiens, UniProt P29274)
[4] = target: 5-hydroxytryptamine receptor 2B (Homo sapiens, UniProt P41595); assay type: functional, cell-based
[5] = target: T2, Alpha-1A adrenergic receptor (Homo sapiens, UniProt P35348); assay type: functional, cell-based
T2 sequence (P35348 whole entry): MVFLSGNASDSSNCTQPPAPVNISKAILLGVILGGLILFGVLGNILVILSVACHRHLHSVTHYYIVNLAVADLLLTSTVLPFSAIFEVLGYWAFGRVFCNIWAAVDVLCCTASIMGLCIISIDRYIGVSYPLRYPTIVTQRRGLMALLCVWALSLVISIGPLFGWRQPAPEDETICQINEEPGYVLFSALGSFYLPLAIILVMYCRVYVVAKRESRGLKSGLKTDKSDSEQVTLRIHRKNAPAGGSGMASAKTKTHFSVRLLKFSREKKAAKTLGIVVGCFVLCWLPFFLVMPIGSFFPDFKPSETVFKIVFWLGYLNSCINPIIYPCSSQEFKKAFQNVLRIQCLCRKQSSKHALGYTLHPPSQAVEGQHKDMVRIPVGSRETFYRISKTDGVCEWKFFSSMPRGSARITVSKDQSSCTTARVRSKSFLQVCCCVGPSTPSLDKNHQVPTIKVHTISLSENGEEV

[6] = target: T2, Alpha-1A adrenergic receptor; assay type: functional, cell-based; remark: listed apart in the source
[7] = target: T3, Gastrin/cholecystokinin type B receptor (Homo sapiens, UniProt P32239)
T3 sequence (P32239 whole entry): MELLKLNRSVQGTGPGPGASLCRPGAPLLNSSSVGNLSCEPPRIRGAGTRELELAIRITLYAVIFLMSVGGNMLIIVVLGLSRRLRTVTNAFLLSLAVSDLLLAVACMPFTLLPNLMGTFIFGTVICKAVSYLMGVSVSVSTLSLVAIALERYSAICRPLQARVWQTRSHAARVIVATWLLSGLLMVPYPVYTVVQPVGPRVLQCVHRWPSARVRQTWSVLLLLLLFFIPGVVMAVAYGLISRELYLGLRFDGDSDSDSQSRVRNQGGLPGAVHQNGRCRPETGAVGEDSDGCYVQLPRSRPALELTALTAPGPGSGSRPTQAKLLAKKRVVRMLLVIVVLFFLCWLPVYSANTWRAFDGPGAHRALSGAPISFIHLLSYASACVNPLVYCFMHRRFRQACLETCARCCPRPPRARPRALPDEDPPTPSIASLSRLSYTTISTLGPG

[8] = target: Sodium-dependent dopamine transporter (Homo sapiens, UniProt Q01959)
[9] = target: Delta-type opioid receptor (Homo sapiens, UniProt P41143)
[10] = target: T4, 5-hydroxytryptamine receptor 2C (Homo sapiens, UniProt P28335)
T4 sequence (P28335 whole entry): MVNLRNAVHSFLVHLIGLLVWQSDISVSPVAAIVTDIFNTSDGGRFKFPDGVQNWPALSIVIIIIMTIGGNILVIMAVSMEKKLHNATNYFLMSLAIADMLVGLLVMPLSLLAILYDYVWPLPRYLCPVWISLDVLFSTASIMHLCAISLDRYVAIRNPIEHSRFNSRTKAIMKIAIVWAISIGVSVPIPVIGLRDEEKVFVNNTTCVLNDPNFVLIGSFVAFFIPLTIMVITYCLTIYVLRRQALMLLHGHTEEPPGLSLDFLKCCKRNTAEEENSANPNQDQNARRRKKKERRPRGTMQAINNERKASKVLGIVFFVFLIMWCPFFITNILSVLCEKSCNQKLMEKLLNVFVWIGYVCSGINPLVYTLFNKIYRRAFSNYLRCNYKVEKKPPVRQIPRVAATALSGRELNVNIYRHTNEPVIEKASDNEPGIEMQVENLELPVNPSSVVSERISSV

Thromboxane A2 receptor = target: T5, Thromboxane A2 receptor (Homo sapiens, UniProt P21731)
T5 sequence (P21731 whole entry): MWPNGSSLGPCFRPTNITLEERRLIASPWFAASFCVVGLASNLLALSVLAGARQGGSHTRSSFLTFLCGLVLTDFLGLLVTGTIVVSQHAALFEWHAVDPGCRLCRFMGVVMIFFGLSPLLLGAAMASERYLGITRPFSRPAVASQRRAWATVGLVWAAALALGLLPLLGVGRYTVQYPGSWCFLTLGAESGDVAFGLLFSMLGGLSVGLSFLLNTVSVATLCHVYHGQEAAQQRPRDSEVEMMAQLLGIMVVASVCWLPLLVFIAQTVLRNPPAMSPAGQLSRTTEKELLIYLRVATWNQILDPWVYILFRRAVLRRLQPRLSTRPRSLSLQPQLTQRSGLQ

Mu-type opioid receptor = Mu-type opioid receptor (Homo sapiens, UniProt P35372)
[11] = target: Glutamate receptor ionotropic, NMDA 1 (Rattus norvegicus, UniProt P35439)
[12] = target: T2, Alpha-1A adrenergic receptor; assay type: functional, cell-based; remark: listed apart in the source
Also: assay procedure not described here.

Mu-type opioid receptor, sequence (P35372 whole entry): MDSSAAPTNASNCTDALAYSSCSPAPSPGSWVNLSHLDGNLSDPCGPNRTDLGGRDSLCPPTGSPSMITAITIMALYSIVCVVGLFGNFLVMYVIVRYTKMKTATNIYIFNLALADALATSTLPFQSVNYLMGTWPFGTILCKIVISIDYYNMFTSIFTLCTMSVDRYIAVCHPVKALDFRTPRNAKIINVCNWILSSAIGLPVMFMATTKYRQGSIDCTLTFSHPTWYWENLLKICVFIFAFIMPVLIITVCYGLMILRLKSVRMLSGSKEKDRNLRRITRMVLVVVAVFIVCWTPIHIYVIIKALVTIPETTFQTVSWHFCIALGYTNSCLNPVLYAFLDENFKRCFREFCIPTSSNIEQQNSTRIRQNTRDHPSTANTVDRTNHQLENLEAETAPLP
D(1A) dopamine receptor, sequence (P21728 whole entry): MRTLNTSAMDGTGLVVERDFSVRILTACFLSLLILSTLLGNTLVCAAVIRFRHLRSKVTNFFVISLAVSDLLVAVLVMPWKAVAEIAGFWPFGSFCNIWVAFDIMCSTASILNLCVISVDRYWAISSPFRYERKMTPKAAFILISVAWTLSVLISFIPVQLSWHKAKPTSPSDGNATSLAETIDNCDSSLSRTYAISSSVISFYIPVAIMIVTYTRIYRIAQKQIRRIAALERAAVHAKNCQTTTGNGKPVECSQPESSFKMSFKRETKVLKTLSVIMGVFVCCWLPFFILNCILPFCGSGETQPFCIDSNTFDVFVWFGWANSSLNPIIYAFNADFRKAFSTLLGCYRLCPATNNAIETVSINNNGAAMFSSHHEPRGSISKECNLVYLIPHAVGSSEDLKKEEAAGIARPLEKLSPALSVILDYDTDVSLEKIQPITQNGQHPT
Adenosine receptor A2a, sequence (P29274 whole entry): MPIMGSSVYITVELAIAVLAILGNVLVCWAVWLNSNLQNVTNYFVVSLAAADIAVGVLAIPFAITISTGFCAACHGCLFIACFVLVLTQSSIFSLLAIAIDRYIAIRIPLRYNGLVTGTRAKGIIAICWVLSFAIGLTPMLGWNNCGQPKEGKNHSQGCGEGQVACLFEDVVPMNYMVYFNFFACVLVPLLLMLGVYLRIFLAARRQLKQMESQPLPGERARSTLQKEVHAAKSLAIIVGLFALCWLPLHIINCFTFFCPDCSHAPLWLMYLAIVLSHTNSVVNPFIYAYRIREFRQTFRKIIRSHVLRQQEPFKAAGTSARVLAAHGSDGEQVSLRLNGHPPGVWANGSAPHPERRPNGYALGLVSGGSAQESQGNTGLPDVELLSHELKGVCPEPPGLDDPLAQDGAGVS
Gamma-aminobutyric acid receptor subunit alpha-1, sequence (P62813 whole entry): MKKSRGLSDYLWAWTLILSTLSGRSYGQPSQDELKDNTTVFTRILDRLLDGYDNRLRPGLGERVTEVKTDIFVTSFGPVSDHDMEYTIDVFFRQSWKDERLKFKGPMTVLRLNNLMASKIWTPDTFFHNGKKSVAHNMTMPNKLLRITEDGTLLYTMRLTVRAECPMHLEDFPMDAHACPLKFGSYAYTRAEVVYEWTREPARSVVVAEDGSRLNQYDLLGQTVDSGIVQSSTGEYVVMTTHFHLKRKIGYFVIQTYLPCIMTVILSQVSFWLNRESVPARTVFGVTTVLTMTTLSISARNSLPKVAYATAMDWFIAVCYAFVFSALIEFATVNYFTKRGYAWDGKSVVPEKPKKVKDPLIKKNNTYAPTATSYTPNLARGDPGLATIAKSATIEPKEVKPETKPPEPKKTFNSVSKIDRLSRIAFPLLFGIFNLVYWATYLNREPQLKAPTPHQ
Histamine H2 receptor, sequence (P25021 whole entry): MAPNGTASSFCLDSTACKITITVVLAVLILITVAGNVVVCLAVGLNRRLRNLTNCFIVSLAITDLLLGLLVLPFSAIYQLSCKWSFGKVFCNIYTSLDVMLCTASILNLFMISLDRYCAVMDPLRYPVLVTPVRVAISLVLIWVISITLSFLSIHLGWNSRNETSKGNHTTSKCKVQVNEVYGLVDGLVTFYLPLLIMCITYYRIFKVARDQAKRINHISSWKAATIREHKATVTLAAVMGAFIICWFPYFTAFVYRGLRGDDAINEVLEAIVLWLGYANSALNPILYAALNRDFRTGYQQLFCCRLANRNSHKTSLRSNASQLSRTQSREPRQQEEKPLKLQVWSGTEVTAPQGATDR
Delta-type opioid receptor, sequence (P41143 whole entry): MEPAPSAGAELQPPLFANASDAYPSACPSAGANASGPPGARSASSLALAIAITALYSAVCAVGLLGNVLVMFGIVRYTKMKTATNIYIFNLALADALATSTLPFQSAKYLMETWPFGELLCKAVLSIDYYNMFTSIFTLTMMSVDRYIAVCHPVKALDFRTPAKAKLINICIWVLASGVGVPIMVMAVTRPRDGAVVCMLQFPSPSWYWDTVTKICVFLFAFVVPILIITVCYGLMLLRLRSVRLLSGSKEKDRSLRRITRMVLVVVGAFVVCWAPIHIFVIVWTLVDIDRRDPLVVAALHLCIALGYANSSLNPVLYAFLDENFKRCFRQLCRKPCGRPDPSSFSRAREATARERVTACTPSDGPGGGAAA
Beta-2 adrenergic receptor, sequence (P07550 whole entry): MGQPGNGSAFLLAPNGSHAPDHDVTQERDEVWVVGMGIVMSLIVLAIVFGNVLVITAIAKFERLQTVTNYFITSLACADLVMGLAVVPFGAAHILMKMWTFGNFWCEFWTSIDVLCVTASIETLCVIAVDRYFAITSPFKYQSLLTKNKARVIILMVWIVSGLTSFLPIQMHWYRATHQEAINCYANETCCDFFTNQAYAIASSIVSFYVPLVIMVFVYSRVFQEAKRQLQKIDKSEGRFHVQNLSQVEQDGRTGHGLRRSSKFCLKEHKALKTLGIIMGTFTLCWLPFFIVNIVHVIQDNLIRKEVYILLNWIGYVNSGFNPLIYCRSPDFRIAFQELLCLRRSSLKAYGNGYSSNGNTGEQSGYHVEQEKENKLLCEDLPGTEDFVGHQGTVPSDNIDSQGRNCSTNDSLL
5-hydroxytryptamine receptor 2B, sequence (P41595 whole entry): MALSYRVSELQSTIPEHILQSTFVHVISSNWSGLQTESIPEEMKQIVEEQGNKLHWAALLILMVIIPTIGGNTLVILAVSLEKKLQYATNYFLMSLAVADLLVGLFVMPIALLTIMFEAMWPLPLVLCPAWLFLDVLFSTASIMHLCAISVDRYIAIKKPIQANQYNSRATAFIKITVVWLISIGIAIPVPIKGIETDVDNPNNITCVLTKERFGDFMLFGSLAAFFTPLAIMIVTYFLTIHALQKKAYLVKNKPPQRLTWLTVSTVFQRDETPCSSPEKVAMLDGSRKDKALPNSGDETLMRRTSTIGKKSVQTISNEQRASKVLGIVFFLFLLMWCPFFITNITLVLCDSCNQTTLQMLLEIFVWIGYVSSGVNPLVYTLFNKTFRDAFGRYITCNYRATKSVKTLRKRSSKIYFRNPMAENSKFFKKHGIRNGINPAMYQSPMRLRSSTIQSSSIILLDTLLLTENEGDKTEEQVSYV
Sodium-dependent dopamine transporter, sequence (Q01959 whole entry): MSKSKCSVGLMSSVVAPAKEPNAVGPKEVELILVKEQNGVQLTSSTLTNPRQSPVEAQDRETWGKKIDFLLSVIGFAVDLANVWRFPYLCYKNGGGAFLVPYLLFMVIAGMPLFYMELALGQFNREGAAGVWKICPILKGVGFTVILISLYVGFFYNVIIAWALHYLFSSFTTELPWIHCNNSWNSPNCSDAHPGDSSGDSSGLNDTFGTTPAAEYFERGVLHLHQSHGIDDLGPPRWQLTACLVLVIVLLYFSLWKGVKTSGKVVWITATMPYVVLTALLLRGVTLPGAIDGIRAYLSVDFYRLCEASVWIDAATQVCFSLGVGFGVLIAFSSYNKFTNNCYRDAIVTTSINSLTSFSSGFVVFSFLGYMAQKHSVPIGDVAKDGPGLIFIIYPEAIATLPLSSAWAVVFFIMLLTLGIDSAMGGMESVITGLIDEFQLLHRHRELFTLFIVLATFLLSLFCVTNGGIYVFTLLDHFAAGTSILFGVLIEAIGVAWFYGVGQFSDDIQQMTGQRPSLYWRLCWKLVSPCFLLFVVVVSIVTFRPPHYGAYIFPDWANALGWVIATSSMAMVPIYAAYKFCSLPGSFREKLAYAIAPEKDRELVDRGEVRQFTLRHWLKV

Structure (SMILES)	AC50 (D(1A) dopamine receptor) [µM]	AC50 [1] [µM]	AC50 [2] [µM]	AC50 (Histamine H2 receptor) [µM]	AC50 [3] [µM]	AC50 (Adenosine receptor A2a) [µM]	AC50 [4] [µM]	AC50 [5] [µM]	AC50 [6] [µM]	AC50 [7] [µM]	AC50 [8] [µM]	AC50 [9] [µM]	AC50 [10] [µM]	AC50 (Thromboxane A2 receptor) [µM]	AC50 (Mu-type opioid receptor) [µM]	AC50 [11] [µM]	AC50 [12] [µM]
CCOc1nc2cccc(C(=O)O)c2n1Cc1ccc(-c2ccccc2-c2nnn[nH]2)cc1	> 30	> 30	> 30	> 10	> 10	> 30	16	> 30	> 30	> 10	> 30	> 30	14	> 10	> 30	–	–
CCOc1cc([C@@H](CS(C)(=O)=O)N2C(=O)c3cccc(NC(C)=O)c3C2=O)ccc1OC	> 30	> 30	> 30	–	–	> 30	4.5	> 30	> 30	–	> 30	> 30	> 30	–	> 30	–	–
Cc1nnc(SCC2=C(C(=O)O)N3C(=O)[C@@H](NC(=O)Cn4cnnn4)[C@H]3SC2)s1 [CEFAZOLIN]	> 300	> 300	> 300	> 30	–	> 300	> 300	> 300	> 300	> 30	> 300	> 300	> 300	–	> 300	> 30	–
CC(C)(O/N=C(\C(=O)N[C@@H]1C(=O)N2C(C(=O)[O-])=C(C[n+]3ccccc3)CS[C@H]12)c1csc(N)n1)C(=O)O [CEFTAZIDIME]	> 300	> 300	> 300	> 30	–	> 300	> 300	> 300	> 300	> 30	> 300	> 300	> 300	–	> 300	> 30	–
C[N+](C)(C)CCOP(=O)(O)OP(=O)([O-])OC[C@H]1O[C@@H](n2ccc(N)nc2=O)[C@H](O)[C@@H]1O [CITICOLINE]	> 30	> 30	> 30	> 30	> 30	–	> 30	> 30	> 30	–	–	> 30	> 30	–	–	> 30	> 30
Clc1ccc(Cn2c(CN3CCCC3)nc3ccccc32)cc1 [CLEMIZOLE]	> 30	> 30	> 30	–	–	> 30	–	13	> 30	–	24	> 30	> 30	–	> 30	–	–
Cc1nc(Nc2ncc(C(=O)Nc3c(C)cccc3Cl)s2)cc(N2CCN(CCO)CC2)n1 [DASATINIB]	> 30	> 30	> 30	> 30	–	> 30	6.3	10	> 30	> 30	25.3	9.76	14.1	> 10	> 30	> 10	–
CC(C)Cc1ccc([C@H](C)C(=O)O)cc1 [DEXIBUPROFEN]	> 30	> 30	> 30	–	–	> 30	> 30	> 30	> 30	–	> 30	> 30	> 30	–	> 30	–	–
Cc1onc(-c2c(F)cccc2Cl)c1C(=O)N[C@@H]1C(=O)N2[C@@H]1SC(C)(C)[C@@H]2C(=O)O [FLOXACILLIN]	> 30	> 30	> 30	–	–	> 30	> 30	> 30	> 30	–	> 30	> 30	> 30	–	> 30	–	–
CC[C@H](C)C(=O)O[C@H]1C[C@@H](C)C=C2C=C[C@H](C)[C@H](CC[C@@H]3C[C@@H](O)CC(=O)O3)[C@H]21 [LOVASTATIN]	> 10	> 30	> 10	> 10	> 10	> 30	23	–	> 30	> 30	> 10	> 30	> 30	12	> 30	> 10	–
CC[C@@H](CO)NC(=O)[C@@H]1C=C2c3cccc4c3c(cn4C)C[C@H]2N(C)C1 [METHYSERGIDE]	–	> 30	0.2	2.78	> 10	> 30	–	–	0.88	> 30	> 30	> 30	0.0082	24.5	> 30	> 10	–
CN1Cc2c(N)cccc2C(c2ccccc2)C1 (stereo not given) [NOMIFENSINE]	> 30	> 30	> 30	> 30	> 30	> 30	–	13	> 30	> 30	–	> 30	–	> 30	4.4	> 30	–
S=P(N1CC1)(N1CC1)N1CC1 [THIOTEPA]	> 30	> 30	> 10	–	–	> 30	1.6	0.044	> 30	–	27	> 30	9.4	–	28	–	–
